# In patent publication US7163946B2 (Ligand Pharmaceuticals Incorporated, priority 2002, dated 2007):
# How the values were obtained:
# Type in all cases: cell-based
# hPR [1] = target: T1, hPR (Homo sapiens, UniProt P06401); experiment: hPR cotransfection assay in CV-1 cells, agonist mode; conditions: for Emax: CV-1, CV-1 cells, relative to maximal response of progesterone as 100%, read-out: hPR Agonist CV-1 Cells Eff. (%)
# T1 sequence (P06401 1-933): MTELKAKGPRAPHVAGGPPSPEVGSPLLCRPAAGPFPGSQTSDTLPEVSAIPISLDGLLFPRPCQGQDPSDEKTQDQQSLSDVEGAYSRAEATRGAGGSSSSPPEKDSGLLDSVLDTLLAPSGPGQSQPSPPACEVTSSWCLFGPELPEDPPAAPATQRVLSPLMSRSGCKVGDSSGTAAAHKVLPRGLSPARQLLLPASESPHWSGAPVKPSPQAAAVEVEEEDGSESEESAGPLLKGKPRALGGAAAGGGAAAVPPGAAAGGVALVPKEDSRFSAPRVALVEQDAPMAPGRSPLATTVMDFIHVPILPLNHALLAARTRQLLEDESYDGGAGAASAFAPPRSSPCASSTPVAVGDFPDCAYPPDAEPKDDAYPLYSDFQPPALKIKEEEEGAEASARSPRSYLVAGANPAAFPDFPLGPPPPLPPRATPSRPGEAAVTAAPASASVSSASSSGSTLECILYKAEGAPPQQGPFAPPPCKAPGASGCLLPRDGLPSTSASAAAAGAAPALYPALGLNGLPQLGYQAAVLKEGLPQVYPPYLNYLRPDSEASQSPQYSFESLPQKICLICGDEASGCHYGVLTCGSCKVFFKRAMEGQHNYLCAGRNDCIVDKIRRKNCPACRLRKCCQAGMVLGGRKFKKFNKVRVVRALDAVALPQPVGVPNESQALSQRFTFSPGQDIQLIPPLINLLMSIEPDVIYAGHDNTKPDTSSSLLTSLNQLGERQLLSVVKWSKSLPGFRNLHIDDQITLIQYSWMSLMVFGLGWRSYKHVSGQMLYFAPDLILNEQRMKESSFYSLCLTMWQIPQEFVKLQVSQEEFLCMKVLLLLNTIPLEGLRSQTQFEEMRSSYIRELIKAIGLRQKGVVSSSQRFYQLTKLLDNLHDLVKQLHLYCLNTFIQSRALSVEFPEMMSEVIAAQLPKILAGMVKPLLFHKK
# hPR [2] = target: T1, hPR; experiment: hPR cotransfection assay in CV-1 cells, antagonist mode; conditions: for Emax: CV-1, CV-1 cells, maximal inhibition of reference agonist at EC50 concentration, read-out: hPR Antagonist CV-1 Cells Eff. (%); for IC50: CV-1 cells
# hPR [3] = target: T2, hPR (Homo sapiens, UniProt P06401); experiment: T47D alkaline phosphatase assay, agonist mode; conditions: T47D human breast cancer cells; for Emax: T47D, read-out: hPR Agonist T47D cells Eff. (%)
# T2 sequence (P06401 679-933 limits assumed): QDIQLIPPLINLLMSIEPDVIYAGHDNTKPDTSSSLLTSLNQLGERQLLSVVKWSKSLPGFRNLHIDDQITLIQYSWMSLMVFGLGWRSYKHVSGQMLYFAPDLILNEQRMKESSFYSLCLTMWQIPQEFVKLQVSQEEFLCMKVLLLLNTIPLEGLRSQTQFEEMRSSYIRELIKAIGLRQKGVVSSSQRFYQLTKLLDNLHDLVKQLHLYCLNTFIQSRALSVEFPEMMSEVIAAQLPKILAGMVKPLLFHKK
# hGR = target: T3, hGR (Homo sapiens, UniProt P04150); experiment: hGR cotransfection assay (potency ratio to hPR); conditions: receptor-selectivity potency ratio, cotransfection assays
# T3 sequence (P04150 1-777): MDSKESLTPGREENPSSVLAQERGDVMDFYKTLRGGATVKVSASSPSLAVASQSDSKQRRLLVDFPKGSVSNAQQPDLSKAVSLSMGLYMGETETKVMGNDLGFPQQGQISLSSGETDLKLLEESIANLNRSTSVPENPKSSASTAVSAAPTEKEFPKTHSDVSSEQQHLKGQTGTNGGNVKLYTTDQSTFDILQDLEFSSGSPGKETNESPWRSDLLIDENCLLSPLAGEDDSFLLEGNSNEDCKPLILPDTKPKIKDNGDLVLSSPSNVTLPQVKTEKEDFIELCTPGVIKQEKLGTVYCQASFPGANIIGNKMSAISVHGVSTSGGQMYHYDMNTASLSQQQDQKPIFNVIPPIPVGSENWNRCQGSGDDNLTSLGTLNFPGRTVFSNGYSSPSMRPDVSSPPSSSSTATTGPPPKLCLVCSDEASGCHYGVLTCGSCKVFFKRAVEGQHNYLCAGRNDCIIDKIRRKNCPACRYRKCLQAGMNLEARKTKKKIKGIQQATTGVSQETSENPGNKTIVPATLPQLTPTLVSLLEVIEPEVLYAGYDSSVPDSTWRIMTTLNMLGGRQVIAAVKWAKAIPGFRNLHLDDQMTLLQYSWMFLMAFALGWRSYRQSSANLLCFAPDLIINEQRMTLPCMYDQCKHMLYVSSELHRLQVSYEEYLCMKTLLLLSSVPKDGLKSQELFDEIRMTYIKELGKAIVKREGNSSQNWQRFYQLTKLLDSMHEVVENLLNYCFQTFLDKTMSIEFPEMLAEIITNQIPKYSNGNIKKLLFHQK
# [4] = CV-1 cells, read-out: hPR Agonist CV-1 Cells EC50
# [5] = Tables 3 and 4, values without footnote, read-out: hPR agonist potencies (EC50 in nM) in the cotransfection assay
Emax (hPR [1]) [%],EC50 (hPR [1]; [4]) [nM],Emax (hPR [2]) [%],IC50 (hPR [2]) [µM],EC50 (hPR [3]) [nM],Emax (hPR [3]) [%],hGR EC50 or IC50/hPR EC50 (hGR),EC50 (hPR [1]; [5]) [nM],Structure (SMILES)
154,2.3,< 20,> 10,20,61,8.8,–,"CC1=CC(C)(C)Nc2ccc3c(c21)C(c1cc2ccccc2s1)Oc1c(F)cc(F)cc1-3 (racemic) [Compound 63, (±)-7,9-difluoro-5-(benzo[b]thien-2-yl)-1,2-dihydro-2,2,4-trimethyl-5H-chromeno[3,4-f]quinoline]"
142,1.3,< 20,> 10,17,57,77,1.3,"COc1ccccc1/C=C1\Oc2c(F)cc(F)cc2-c2ccc3c(c21)C(C)=CC(C)(C)N3 [Compound 18, 7,9-difluoro-5(Z)-(2-methoxybenzylidene)-1,2-dihydro-2,2,4-trimethyl-5H-chromeno[3,4-f]quinoline]"
153,4.9,< 20,> 10,30,54,290,4.9,"CC1=CC(C)(C)Nc2ccc3c(c21)/C(=C/c1ccccc1)Oc1c(F)cc(F)cc1-3 [Compound 10, 7,9-difluoro-5(Z)-benzylidene-1,2-dihydro-2,2,4-trimethyl-5H-chromeno[3,4-f]quinoline]"
